Consider 4 compounds from patent US11662349B2, “Carbohydrate sensors” (Commonwealth Scientific and Industrial Research Organisation, priority 2017, dated 2023).

Where “and” joins values, the source holds several entries; their conditions need not be identical. Identical values can stand only once.

The target in test [1] is LacB1 sensor, GFP^2-BgaR-RLuc8 fusion protein, SEQ ID NO: 15 (BgaR from Clostridium perfringins strain 13, SEQ ID NO: 1) (Clostridium perfringens, UniProt Q8XMB9). In words: biochemical. The test is classed as binding.
The target in test [2] is LacF1 sensor, His6-CFP-BgaR-YFP fusion protein, SEQ ID NO: 23 (BgaR from Clostridium perfringins strain 13, SEQ ID NO: 1) (Clostridium perfringens, UniProt Q8XMB9). The test is classed as binding.

The term EC50 denotes the concentration at which the effect is half-maximal. Read a low EC50 as higher potency in that assay. For `OC[C@H]1O[C@@H](O[C@@H]2[C@@H](CO)OC(O)(CO)[C@H]2O)[C@H](O)[C@@H](O)[C@H]1O` (stereo partly drawn) [lactulose, 4-O-β-D-galactosyl-D-fructose], in test [1], the “affinity of LacB1 for lactulose weaker than for lactose” value is “approximately 150 fold”; the “change in BRET^2 ratio” value is “approximately 21%”; the “difference in EC50 between lactose and lactulose” value is 200 fold; the “limit of detection (LOD), lactulose” value came out at 0.1 mM. Also, the “limit of detection for lactulose higher than for lactose” value in test [1] amounted to 100 fold. Also, in test [1] (EC50 (lactulose)), the EC50 is 2400 ± 200 µM.
In the case of `OC[C@H]1OC(O)[C@H](O)[C@@H](O)[C@@H]1O` (some centres unmarked) [glucose], the “change in BRET^2 ratio” value in test [1] is 9% and 6%.
With `OC[C@H]1O[C@@H](O[C@H]2[C@H](O)[C@@H](O)C(O)O[C@@H]2CO)[C@H](O)[C@@H](O)[C@H]1O` (stereo partly drawn) [lactose, β-D-galactosyl-(1→4)-D-glucose], in test [1], the “RET ratio in the presence of lactose” value is recorded as 0.800±0.003, the “change in BRET^2 ratio” value is “approximately 35%” and the “drop in RET ratio” value is 27%. Moreover, the EC50 in test [1] (EC50 (lactose)) was 12 µM and 21 µM and 11 to 14 µM and 18 to 23 µM. For the same compound, in test [2], the “RET ratio in the presence of lactose” value amounted to 1.089±0.004 and the “decrease in RET ratio” value is 10%.
On to `OC[C@H]1OC(O)[C@H](O)[C@@H](O)[C@H]1O` (some centres unmarked) [galactose], for which, in test [1], the “change in BRET^2 ratio” value was 3% and 13%.
